Measurements as given in ChEMBL document CHEMBL1139537, “Examination of phosphoryl-mimicking functionalities within a macrocyclic Grb2 SH2 domain-binding platform” (J Med Chem, 2005).
pIC50, pKd: −log10 of the molar value.

Legend:
[1] = target: T1, Growth factor receptor-bound protein 2 (Homo sapiens, UniProt P62993); test: Dissociation constant value against growth factor receptor bound protein 2
Target sequence in this assay (P62993 whole entry): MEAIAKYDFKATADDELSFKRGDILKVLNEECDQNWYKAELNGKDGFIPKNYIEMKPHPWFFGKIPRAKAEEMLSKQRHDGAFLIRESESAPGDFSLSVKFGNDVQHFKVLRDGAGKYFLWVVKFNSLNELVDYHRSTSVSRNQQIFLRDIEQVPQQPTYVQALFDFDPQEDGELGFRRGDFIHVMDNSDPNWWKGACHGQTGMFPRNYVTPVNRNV

[2] = target: T1, Growth factor receptor-bound protein 2; test: Binding off-rate against growth factor receptor bound protein 2
Target sequence in this assay (P62993 whole entry): as above

[3] = target: T1, Growth factor receptor-bound protein 2; test: Inhibitory concentration against growth factor receptor bound protein 2
Target sequence in this assay (P62993 whole entry): as above

[4] = target: T1, Growth factor receptor-bound protein 2; test: Binding on-rate against growth factor receptor bound protein 2
Target sequence in this assay (P62993 whole entry, looked up): as the sequence (P62993 whole entry) above

| SMILES | pKd [1] | koff [2] | pIC50 [3] | Ka [4] |
| --- | --- | --- | --- | --- |
| Cc1ccc2c(ccn2C[C@@H]2C/C=C/[C@H](c3ccc(O)cc3)[C@H](CC(=O)O)C(=O)NC3(CCCCC3)C(=O)N[C@@H](CC(N)=O)C(=O)NC2)c1 | < 6.00 |  |  |  |
| Cc1ccc2c(ccn2C[C@@H]2C/C=C/[C@H](c3ccc(CP(C)(=O)O)cc3)[C@H](CC(=O)O)C(=O)NC3(CCCCC3)C(=O)N[C@@H](CC(N)=O)C(=O)NC2)c1 | 7.79 | 0.00988 s⁻¹ | 8.20 |  |
| Cc1ccc2c(ccn2C[C@@H]2C/C=C/[C@H](c3ccc(CP(=O)(O)Cc4ccccc4)cc3)[C@H](CC(=O)O)C(=O)NC3(CCCCC3)C(=O)N[C@@H](CC(N)=O)C(=O)NC2)c1 | 7.45 | 0.00512 s⁻¹ | 8.08 |  |
| Cc1ccc2c(ccn2C[C@@H]2C/C=C/[C@H](c3ccc(CP(=O)(O)O)cc3)[C@H](CC(=O)O)C(=O)NC3(CCCCC3)C(=O)N[C@@H](CC(N)=O)C(=O)NC2)c1 | 8.83 | 0.00801 s⁻¹ | 7.82 | 5.46e+06 M⁻¹ s⁻¹ |
| Cc1ccc2c(ccn2C[C@@H]2C/C=C/[C@H](c3ccc(NC(=O)C(=O)O)cc3)[C@H](CC(=O)O)C(=O)NC3(CCCCC3)C(=O)N[C@@H](CC(N)=O)C(=O)NC2)c1 | 7.17 | 0.0508 s⁻¹ | 8.06 |  |
| Cc1ccc2c(ccn2C[C@@H]2C/C=C/[C@H](c3ccc(C(C(=O)O)C(=O)O)cc3)[C@H](CC(=O)O)C(=O)NC3(CCCCC3)C(=O)N[C@@H](CC(N)=O)C(=O)NC2)c1 | 8.44 | 0.0227 s⁻¹ | 8.48 |  |
| Cc1ccc2c(ccn2C[C@@H]2C/C=C/[C@H](c3ccc([N+](=O)[O-])cc3)[C@H](CC(=O)O)C(=O)NC3(CCCCC3)C(=O)N[C@@H](CC(N)=O)C(=O)NC2)c1 | < 6.00 |  |  |  |
| Cc1ccc2c(ccn2C[C@@H]2C/C=C/[C@H](c3ccc(CC(=O)O)cc3)[C@H](CC(=O)O)C(=O)NC3(CCCCC3)C(=O)N[C@@H](CC(N)=O)C(=O)NC2)c1 | 7.48 | 0.0101 s⁻¹ | 7.65 |  |
